Tests used:
DU145 [1] = experiment: in vitro anticancer activity in combination with compound 14, modified propidium iodide assay; format: cell-based, human
Method: Standard agents were applied at 10 concentrations in sextuplicates in half-log increments. […] Growth inhibition is expressed as treated/control×100 (% T/C), and IC70 values for each combination were determined by plotting compound concentration versus cell viability.
In vitro evaluation of 14 for anticancer activity when combined with standard cytotoxic agents against the tumour cell line DU145 in a monolayer proliferation assay was carried out as described in the general methods using a modified propidium iodide assay.

394NL = experiment: monolayer proliferation assay (modified propidium iodide assay), 394NL; format: cell-based, human; settings: 4 days exposure, median of duplicate experiments
Method: (§1) In vitro evaluation of compounds for anticancer activity in a panel of 38 human tumour cell lines in a monolayer proliferation assay was carried out at the Oncotest Testing Facility, Institute for Experimental Oncology, Oncotest GmbH, Freiburg.
(§2) The Oncotest cell lines are established from human tumor xenografts as described by Roth et al., (1999). The origin of the donor xenografts was described by Fiebig et al., (1999). Other cell lines are either obtained from the NCl (H460, SF-268, OVCAR-3, DU145, MDA-MB-231, MDA-MB-468) or purchased from DSMZ, Braunschweig, Germany (LNCAP).
(§3) All cell lines, unless otherwise specified, were grown at 37° C. in a humidified atmosphere (95% air, 5% CO2) in a ‘ready-mix’ medium containing RPMI 1640 medium, 10% fetal calf serum, and 0.1 mg/mL gentamicin (PAA, Cölbe, Germany).
(§4) A modified propidium iodide assay was used to assess the effects of the test compound(s) on the growth of human tumour cell lines (Dengler et al., (1995)).
(§5) Briefly, cells were harvested from exponential phase cultures by trypsinization, counted and plated in 96 well flat-bottomed microtitre plates at a cell density dependent on the cell line (5-10.000 viable cells/well). After 24 h recovery to allow the cells to resume exponential growth, 0.010 mL of culture medium (6 control wells per plate) or culture medium containing a 21-deoxymacbecin analogue was added to the wells. Each concentration was plated in triplicate. […] Following 4 days of continuous exposure, cell culture medium with or without test compound was replaced by 0.2 mL of an aqueous propidium iodide (PI) solution (7 mg/L). To measure the proportion of living cells, cells were permeabilized by freezing the plates. After thawing the plates, fluorescence was measured using the Cytofluor 4000 microplate reader (excitation 530 nm, emission 620 nm), giving a direct relationship to the total number of viable cells.
(§6) Growth inhibition was expressed as treated/control×100 (% T/C). For active compounds, IC70 values were estimated by plotting compound concentration versus cell viability.
(§7) In vitro evaluation of the test compounds for anticancer activity in a panel of human tumour cell lines in a monolayer proliferation assay was carried out as described in the general methods using a modified propidium iodide assay.

OVCAR3 = experiment: monolayer proliferation assay (modified propidium iodide assay), OVCAR3; format: cell-based, human; settings: 4 days exposure, median of duplicate experiments
Method: as §1, §2, §3, §4, §5, §6, §7

1138L = experiment: monolayer proliferation assay (modified propidium iodide assay), 1138L; format: cell-based, human; settings: 4 days exposure, median of duplicate experiments
Method: as §1, §2, §3, §4, §5, §6, §7

MCF7 = experiment: monolayer proliferation assay (modified propidium iodide assay), MCF7; format: cell-based, human; settings: 4 days exposure, median of duplicate experiments
Method: as §1, §2, §3, §4, §5, §6, §7

Solubility assay = format: physicochemical; settings: aqueous buffer, kinetic from dmso stock; 2% DMSO in PBS pH 7.3; shaken up to six hours; maximum measurable 0.5 mM
Method: Solutions (25 mM) of the test compounds were prepared by dissolving 3-5 mg aliquots in the appropriate amount of DMSO.
Aliquots (0.01 mL) were added to 0.490 mL of pH 7.3 PBS in glass vials. For each time point, 3 PBS vials were prepared in amber glass vials. For the six hour time point triplicate aliquots in DMSO were also prepared.
The resulting 0.5 mM solutions were shaken for up to six hours, with vials removed for analysis at 1, 3 and 6 hours. Samples were analysed by HPLC (0.025 mL injections).
Solubility in 2% DMSO in PBS at each time point was determined by comparing total peak areas for each chromatogram with mean total peak area for chromatograms produced from the corresponding 6 hour DMSO solutions. (Mean total peak area in DMSO solutions was assumed to be equivalent to a 0.5 mM solution).

Yeast Hsp90 = Yeast Hsp90 (Saccharomyces cerevisiae, UniProt P02829); experiment: Hsp90 binding, isothermal titration calorimetry; settings: yeast Hsp90; ITC at 30° C.; 2% DMSO; read-out: Kd values for Hsp90 binding
Yeast Hsp90, sequence (P02829 whole entry): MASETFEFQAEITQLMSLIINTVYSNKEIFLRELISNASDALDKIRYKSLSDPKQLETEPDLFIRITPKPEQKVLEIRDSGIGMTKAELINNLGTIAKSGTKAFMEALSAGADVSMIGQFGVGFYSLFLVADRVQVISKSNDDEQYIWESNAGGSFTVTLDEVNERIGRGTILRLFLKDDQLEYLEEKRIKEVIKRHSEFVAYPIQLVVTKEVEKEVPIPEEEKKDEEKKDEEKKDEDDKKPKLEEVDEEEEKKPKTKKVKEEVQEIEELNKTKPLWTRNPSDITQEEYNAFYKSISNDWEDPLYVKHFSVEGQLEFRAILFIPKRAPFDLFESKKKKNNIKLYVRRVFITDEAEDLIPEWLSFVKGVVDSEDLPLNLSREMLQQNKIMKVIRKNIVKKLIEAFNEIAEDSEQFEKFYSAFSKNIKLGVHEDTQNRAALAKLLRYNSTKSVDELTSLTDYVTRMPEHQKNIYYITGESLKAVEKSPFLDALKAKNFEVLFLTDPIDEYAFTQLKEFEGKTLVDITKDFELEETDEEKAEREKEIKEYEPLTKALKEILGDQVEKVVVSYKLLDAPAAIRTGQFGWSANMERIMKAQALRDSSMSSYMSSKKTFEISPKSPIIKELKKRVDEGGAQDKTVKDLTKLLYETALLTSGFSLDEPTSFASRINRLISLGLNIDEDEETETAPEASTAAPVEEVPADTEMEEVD
Method: Yeast Hsp90 was dialysed against 20 mM Tris pH 7.5 containing 1 mM EDTA and 5 mM NaCl and then diluted to 0.008 mM in the same buffer, but containing 2% DMSO. The test compounds were dissolved in 100% DMSO at a concentration of 50 mM and subsequently diluted to 0.1 mM in the same buffer as for Hsp90 with 2% DMSO. Heats of interaction were measured at 30° C. on a MSC system (Microcal), with a cell volume of 1.458 mL. 10 aliquots of 0.027 mL of 0.100 mM of each test compound were injected into 0.008 mM yeast Hsp90. Heats of dilution were determined in a separate experiment by injecting the test compound into buffer containing 2% DMSO, and the corrected data fitted using a nonlinear least square curve-fitting algorithm (Microcal Origin) with three floating variables: stoichiometry, binding constant and change in enthalpy of interaction.

H460 = experiment: monolayer proliferation assay (modified propidium iodide assay), H460; format: cell-based, human; settings: 4 days exposure, median of duplicate experiments
Method: as §1, §2, §3, §4, §5, §6, §7

SF268 = experiment: monolayer proliferation assay (modified propidium iodide assay), SF268; format: cell-based, human; settings: 4 days exposure, median of duplicate experiments
Method: as §1, §2, §3, §4, §5, §6, §7

LNCAP = experiment: monolayer proliferation assay (modified propidium iodide assay), LNCAP; format: cell-based, human; settings: 4 days exposure, median of duplicate experiments
Method: as §1, §2, §3, §4, §5, §6, §7

251L = experiment: monolayer proliferation assay (modified propidium iodide assay), 251L; format: cell-based, human; settings: 4 days exposure, median of duplicate experiments
Method: as §1, §2, §3, §4, §5, §6, §7

DU145 [2] = experiment: monolayer proliferation assay (modified propidium iodide assay), DU145; format: cell-based, human; settings: 4 days exposure, median of duplicate experiments
Method: as §1, §2, §3, §4, §5, §6, §7

[3] = concentration of 14: 0 nM (standard agent alone)

O=C1c2c(O)ccc(O)c2C(=O)c2c(NCCNCCO)ccc(NCCNCCO)c21 [mitoxantrone]
IC70 of standard agent (DU145 [1]; combined with 14 at 80 nM): 1.00 mg/L | IC70 of standard agent (DU145 [1]; combined with 14 at 120 nM): 1.25 mg/L | IC70 of standard agent (DU145 [1]; combined with 14 at 160 nM): 0.11 mg/L | IC70 of standard agent (DU145 [1]; [3]): 2.08 mg/L

CO[C@H]1C[C@H](C)[C@@H](O)c2cc(O)cc(c2)NC(=O)/C(C)=C/CC[C@H](C)[C@@H](OC(N)=O)/C(C)=C/[C@H](C)[C@H]1O [Compound 15, 7-O-carbamoyl-15-hydroxypre-macbecin]
Test/Control (%) at drug concentration (394NL; 1 μg/mL): 75% | Test/Control (%) at drug concentration (394NL; 10 μg/mL): 18% | Test/Control (%) at drug concentration (OVCAR3; 1 μg/mL): 100% | Test/Control (%) at drug concentration (OVCAR3; 10 μg/mL): 41% | Test/Control (%) at drug concentration (1138L; 1 μg/mL): 101% | Test/Control (%) at drug concentration (1138L; 10 μg/mL): 25% | Test/Control (%) at drug concentration (MCF7; 1 μg/mL): 99% | Test/Control (%) at drug concentration (MCF7; 10 μg/mL): 19% | solubility (Solubility assay): ≥ 500 µM | Kd (Yeast Hsp90): 6 nM | Test/Control (%) at drug concentration (H460; 1 μg/mL): 87% | Test/Control (%) at drug concentration (H460; 10 μg/mL): 23% | Test/Control (%) at drug concentration (SF268; 1 μg/mL): 95% | Test/Control (%) at drug concentration (SF268; 10 μg/mL): 27% | Test/Control (%) at drug concentration (LNCAP; 1 μg/mL): 58% | Test/Control (%) at drug concentration (LNCAP; 10 μg/mL): 16% | Test/Control (%) at drug concentration (251L; 1 μg/mL): 86% | Test/Control (%) at drug concentration (251L; 10 μg/mL): 29% | Test/Control (%) at drug concentration (DU145 [2]; 1 μg/mL): 99% | Test/Control (%) at drug concentration (DU145 [2]; 10 μg/mL): 18%

O=P1(NCCCl)OCCCN1CCCl (stereo not drawn) [ifosfamid]
IC70 of standard agent (DU145 [1]; combined with 14 at 80 nM): 80.57 mg/L | IC70 of standard agent (DU145 [1]; combined with 14 at 120 nM): 52.09 mg/L | IC70 of standard agent (DU145 [1]; combined with 14 at 160 nM): 17.32 mg/L | IC70 of standard agent (DU145 [1]; [3]): 90.14 mg/L

O=NN(CCCl)C(=O)NC1CCCCC1 [CCNU, Cyclohexylchloroethylnitrosurea]
IC70 of standard agent (DU145 [1]; combined with 14 at 80 nM): 11.30 mg/L | IC70 of standard agent (DU145 [1]; combined with 14 at 120 nM): 9.34 mg/L | IC70 of standard agent (DU145 [1]; combined with 14 at 160 nM): 1.63 mg/L | IC70 of standard agent (DU145 [1]; [3]): 19.74 mg/L

CO[C@@]12[C@H](COC(N)=O)C3=C(C(=O)C(C)=C(N)C3=O)N1C[C@@H]1N[C@@H]12 [mitomycin, mitomycin C]
IC70 of standard agent (DU145 [1]; combined with 14 at 30 nM): 0.112 mg/L | IC70 of standard agent (DU145 [1]; combined with 14 at 50 nM): 0.087 mg/L | IC70 of standard agent (DU145 [1]; combined with 14 at 80 nM): 0.056 mg/L | IC70 of standard agent (DU145 [1]; [3]): 0.165 mg/L
